Reference: PMC4550478, “Metronidazole-triazole conjugates: Activity against Clostridium difficile and parasites” (European Journal of Medicinal Chemistry, 2015)
≈ marks a conversion by molar mass, not a printed value. Where two headings read alike, the source gives them in different places.

Experiments:
[1] = tested on: G. lamblia BRIS/83/HEPU/106 (106); experiment: ATP-bioluminescence growth and survival assay, G. lamblia 106; format: cell-based; conditions: Giardia duodenalis, read-out: EC50 G. lamblia 106
Description: (§1) Compounds were tested for antiparasitic activity against E. histolytica (HM1:1MSS strain) and G. lamblia (WB, BRIS/87/HEPU/713 (713), BRIS/83/HEPU/106 (106) and the metronidazole resistant syngeneic line 713-M3 [[15,16]]) using an ATP-bioluminescence based screen for cell growth and survival [[17,18]]. Assay plates were inoculated with trophozoites (5 × 10^3 parasites/well) and incubated in the GasPak™ EZ Anaerobe Gas Generating Pouch Systems (VWR, West Chester, PA) to maintain anaerobic conditions throughout the incubation period. The assays were performed in triplicate using the CellTiter-Glo Luminescent Cell Viability Assay. Metronidazole was used as a positive control.
(§2) Trophozoites of E. histolytica strain HM1:IMSS and G. lamblia strains WB, BRIS/87/HEPU/713 (713),^10 BRIS/83/HEPU/106 (106)^11 and the metronidazole resistant syngenic line 713-M3^10,11 were axenically maintained in TYI-S-33 medium supplemented with penicillin (100 U/ml), streptomycin (100 µg/ml).^12 E. histolytica and G. lamblia trophozoites were counted using a particle counter (Beckman Coulter, Fullerton, CA). All experiments were performed using trophozoites harvested during the logarithmic phase of growth.
(§3) A three-fold serial dilution was then performed yielding a concentration range 0.25-625 µM. From this dilution plate, 4 µL were transferred into the 96-well screen plates followed by addition of 96 µL of trophozoites (5,000 parasites) to yield a final 8-point concentration range spanning 0.01- 25 µM. Assay plates were incubated for 48 h at 37 °C in the GasPak^TM EZ Anaerobe Gas Generating Pouch Systems (VWR, West Chester, PA) to maintain anaerobic condition throughout the incubation period. The assays were performed in triplicate using the CellTiter-Glo Luminescent Cell Viability Assay.^13

[2] = tested on: G. lamblia BRIS/87/HEPU/713 (713); experiment: ATP-bioluminescence growth and survival assay, G. lamblia 713; format: cell-based; conditions: Giardia duodenalis, read-out: EC50 G. lamblia 713
Description: as §1, §2, §3

[3] = tested on: G. lamblia WB trophozoites; experiment: ATP-bioluminescence growth and survival assay, G. lamblia WB; format: cell-based, Giardia lamblia; conditions: MtzS, 48 h, anaerobic, n = 3
Description: as §1, §2, §3

[4] = tested on: C. difficile NAP1/027 M7404; experiment: MIC broth microdilution, C. difficile NAP1/027 M7404; format: cell-based, Clostridium difficile; conditions: NAP1/027 (footnote d: M7404), MtzS, 24 h, median of at least n = 4; for MIC: Clostridioides difficile, NAP1/027M7404
Description: All compounds were tested for activity against a set of anaerobic C. difficile bacteria (630 ATCC BAA-1382, NAP1/027 M7404, NAP1/027 ATCC BAA-1803, VPI10463 ATCC 43255, CD26A54_S and CD26A54_R) and representative ESKAPE pathogens S. aureus (MRSA ATCC 43300), E. coli (ATCC 25922), K. pneumoniae (ATCC 700603), A. baumannii (ATCC 19606) and P. aeruginosa (ATCC 27853) using a standard broth microdilution assay. Selected compounds were tested for activity against H. pylori strains (26695, and clinical isolates MtzS 13/25, MtzR 98/285 and MtzR 13/61) using agar plate dilution, and for antimicrobial activity against […] Gram-positive bacterial strains: Enterococcus faecalis (VanA clinical isolate), Enterococcus faecium (MDR VanA ATCC 51559), Streptococcus pneumoniae (MDR ATCC 700677), S. aureus (MRSA ATCC 43300, MRSA clinical isolate, MRSA/DRSA clinical isolate, GISA NARSA NRS 1, GISA NARSA NRS 17, VRSA NARSA VRS1, VRSA NARSA VRS4 and VRSA NARSA VRS10) using broth microdilution. C. difficile strains were grown at 37 °C in a COY anaerobic chamber (5% H2, 10% CO2, 85% N2). H. pylori strains were grown at 37 °C under a microaerobic atmosphere (5% O2, 10% CO2). All facultative anaerobic bacteria were grown at 37 °C with normal atmospheric oxygen levels. All experiments were performed in duplicate with metronidazole, vancomycin, linezolid or colistin as positive controls for relevant strains (see Table 1). Positive growth control of bacteria and DMSO as well as a negative control of only media were included for every plate. Full assay details are provided in the supplementary information.
C. difficile ATCC BAA-1382, ATCC BAA-1803, ATCC 43255 and M7404 heat shocked spore stocks (10 µL) were transferred into the anaerobic chamber and 10 µL streaked onto pre-reduced (at least 2.5 hr in anaerobic chamber) BHIS agar plates supplemented with 0.1% w/v sodium taurocholate (BHIS(TA)). Plates were incubated for 24 hours prior to assay to give colonies of size 1-3mm diameter with characteristic uneven borders.
The minimum inhibition concentration was determined according to the CLSI Methods with modifications in broth and inoculum for C. difficile according to Babakhani et al.^7,8 Briefly, compounds were prepared to 20X final concentration in 100% water, 60% DMSO and 40% water or 60% DMSO and 40% media. The compounds along with standard antibiotics were serially diluted two-fold across the wells of 96-well non-binding surface plates (Non binding surface, Corning). The plates were placed in the anaerobic chamber overnight to reduce. C. difficile bacteria from BHIS(TA) agar plates were cultured anaerobically in BHIS at 37 °C overnight. A sample of culture was then diluted 40-fold in BHIS broth and incubated at 37 °C for approximately 4.5 hrs. The resultant mid-log phase culture (OD600= 0.5-0.6) was diluted to the final concentration of ~1×10^6 CFU/mL, then 50 µL was added to each well of the compound-containing 96-well plates. This gave final cell concentration of 5×10^5 CFU/mL, final volume 100 µL and 3% maximum DMSO concentration. Compound concentration was typically from 64 to 0.03 µg/mL. An antibiotic standard was included on each 96 well plate as well as a positive growth control (no compound) and sterility control (no bacteria). All the plates were covered and incubated at 37 °C for 24 h. MICs were the lowest concentration showing no visible growth.

[5] = tested on: G. lamblia BRIS/83/HEPU/106 (106); parameters: method as in earlier work; conditions: MtzS, crude Mtz-triazoles (>85% purity), ref 15 (Miyamoto et al.); read-out: EC50 G. lamblia 106, Lit.; cited from earlier work
[6] = tested on: E. histolytica HM1:IMSS trophozoites; experiment: ATP-bioluminescence growth and survival assay, E. histolytica; format: cell-based, Entamoeba histolytica; conditions: MtzS, 48 h, anaerobic, n = 3
Description: as §1, §2, §3

[7] = MtzS, purified compounds, this study

Row | Structure (SMILES) | EC50 [1, 7] [nM] | EC50 [2, 7] [nM] | EC50 ([3]; Giardia duodenalis) [nM] | MIC [4] [µg/mL] | EC50 [5] [nM] | EC50 ([6]; Entamoeba histolytica) [nM] | EC50 [3] [nM] | MIC C. difficile NAP1/027 (footnote d) [4] [µg/mL] | EC50 [6] [nM] | EC50 [1] [nM] | EC50 [2] [nM]
1 | Cc1ncc([N+](=O)[O-])n1CCO [Compound 1, metronidazole] | 2800 | 2300 | 7900 | 0.5 (≈ 2.92 µM) | 3600 | 5000 |  |  |  |  | 
2 | Cc1ncc([N+](=O)[O-])n1CCN=[N+]=[N-] [Compound 3, 1-(2-azidoethyl)-2-methyl-5-nitro-1H-imidazole] |  |  |  |  |  |  | 1500 | 0.5 (≈ 2.55 µM) | 2100 |  | 
3 | Cc1ncc([N+](=O)[O-])n1CCn1cc(-c2ccccc2)nn1 [Compound 4a, 1-(2-(2-methyl-5-nitro-1H-imidazol-1-yl)ethyl)-4-phenyl-1H-1,2,3-triazole] |  |  | 250 | 0.5 (≈ 1.68 µM) | 260 | 4200 |  |  |  | 280 | 160
4 | COc1ccc(-c2cn(CCn3c([N+](=O)[O-])cnc3C)nn2)cc1 [Compound 4b, 1-(2-(2-methyl-5-nitro-1H-imidazol-1-yl)ethyl)-4-(4-methoxyphenyl)-1H-1,2,3-triazole] |  |  | 270 | 0.5 (≈ 1.52 µM) |  | 4800 |  |  |  | 640 | 640
5 | Cc1ncc([N+](=O)[O-])n1CCn1cc(-c2ccc(Cl)cc2)nn1 [Compound 4c, 1-(2-(2-methyl-5-nitro-1H-imidazol-1-yl)ethyl)-4-(4-chlorophenyl)-1H-1,2,3-triazole] |  |  | 200 | 0.25 (≈ 0.751 µM) |  | 3600 |  |  |  | 890 | 1200
6 | Cc1ncc([N+](=O)[O-])n1CCn1cc(-c2ccc(Cl)c(Cl)c2)nn1 [Compound 4d, 1-(2-(2-methyl-5-nitro-1H-imidazol-1-yl)ethyl)-4-(3,4-dichlorophenyl)-1H-1,2,3-triazole] |  |  | 390 | 1 (≈ 2.72 µM) | 1400 | 5200 |  |  |  | 1100 | 2500
7 | Cc1ccc(-c2cn(CCn3c([N+](=O)[O-])cnc3C)nn2)cc1 [Compound 4e, 1-(2-(2-methyl-5-nitro-1H-imidazol-1-yl)ethyl)-4-(p-tolyl)-1H-1,2,3-triazole] |  |  | 180 | 0.5 (≈ 1.6 µM) | 2100 | 3700 |  |  |  | 290 | 290
8 | COC(=O)c1cn(CCn2c([N+](=O)[O-])cnc2C)nn1 [Compound 4f, 1-(2-(2-methyl-5-nitro-1H-imidazol-1-yl)ethyl)-4-(methoxycarbonyl)-1H-1,2,3-triazole] |  |  | 3000 | 1 (≈ 3.57 µM) |  | > 25000 |  |  |  | 2000 | 1800
9 | Cc1ncc([N+](=O)[O-])n1CCn1cc(Cn2cccn2)nn1 [Compound 4g, 1-(2-(2-methyl-5-nitro-1H-imidazol-1-yl)ethyl)-4-((1H-pyrazol-1-yl)methyl)-1H-1,2,3-triazole] |  |  | 4900 | 1 (≈ 3.31 µM) |  | > 25000 |  |  |  |  | 
10 | Cc1ncc([N+](=O)[O-])n1CCn1cc(-c2cncnc2)nn1 [Compound 4i, 1-(2-(2-methyl-5-nitro-1H-imidazol-1-yl)ethyl)-4-(5-pyrimidinyl)-1H-1,2,3-triazole] |  |  | 3300 | 1 (≈ 3.33 µM) |  | > 25000 |  |  |  |  | 
11 | Cc1ncc([N+](=O)[O-])n1CCn1cc(-c2ncccn2)nn1 [Compound 4j, 1-(2-(2-methyl-5-nitro-1H-imidazol-1-yl)ethyl)-4-(2-pyrimidinyl)-1H-1,2,3-triazole] |  |  | 1700 | 2 (≈ 6.66 µM) |  | > 25000 |  |  |  |  | 
12 | Cc1ncc([N+](=O)[O-])n1CCn1cc(C(O)c2ccccc2)nn1 (centres unmarked) [Compound 4l, 1-(2-(2-methyl-5-nitro-1H-imidazol-1-yl)ethyl)-4-(1-phenyl-1-hydroxylmethyl)-1H-1,2,3-triazole] |  |  | 4400 | 0.5 to 1 (≈ 1.52 to 3.05 µM) |  | > 25000 |  |  |  | 2200 | 2400
13 | Cc1ncc([N+](=O)[O-])n1CCn1cc(CN2CCS(=O)(=O)CC2)nn1 [Compound 4o, 1-(2-(2-methyl-5-nitro-1H-imidazol-1-yl)ethyl)-4-((1,1-dioxothiomorpholin-4-yl)methyl)-1H-1,2,3-triazole] |  |  | > 25000 | > 64 |  | > 25000 |  |  |  |  | 
14 | Cc1ncc([N+](=O)[O-])n1CCn1cc(CCO)nn1 [Compound 4p, 1-(2-(2-methyl-5-nitro-1H-imidazol-1-yl)ethyl)-4-(2-hydroxyethyl)-1H-1,2,3-triazole] |  |  | > 25000 | 8 (≈ 30 µM) |  | > 25000 |  |  |  |  | 
15 | Cc1ncc([N+](=O)[O-])n1CCn1cc(CO)nn1 [Compound 4q, 1-(2-(2-methyl-5-nitro-1H-imidazol-1-yl)ethyl)-4-(hydroxymethyl)-1H-1,2,3-triazole] |  |  | > 25000 | 16 (≈ 63.4 µM) |  | > 25000 |  |  |  |  | 
16 | Cc1ncc([N+](=O)[O-])n1CCn1cc(CCC(=O)O)nn1 [Compound 4r, sodium 1-(2-(2-methyl-5-nitro-1H-imidazol-1-yl)ethyl)-4-(carboxyethyl)-1H-1,2,3-triazole] |  |  | > 25000 | > 64 |  | > 25000 |  |  |  |  | 
17 | Cc1ncc([N+](=O)[O-])n1CCn1cc(C(=O)O)nn1 [Compound 4s, 1-(2-(2-methyl-5-nitro-1H-imidazol-1-yl)ethyl)-4-(carboxy)-1H-1,2,3-triazole] |  |  | > 25000 | 64 (≈ 240 µM) |  | > 25000 |  |  |  |  | 
18 | Cc1ncc([N+](=O)[O-])n1CCn1cc(CN)nn1.O=C(O)C(F)(F)F [Compound 4t, 1-(2-(2-methyl-5-nitro-1H-imidazol-1-yl)ethyl)-4-(aminomethyl)-1H-1,2,3-triazole trifluoroacetate salt] |  |  | > 25000 | > 64 |  | > 25000 |  |  |  |  | 
